These results are taken from patent US9180193B2, “Antiviral compounds” (Hoffmann-La Roche Inc., priority 2011, dated 2015).

Test system in one data set: not listed separately
In words: in vitro. The format is cell-based. To be noted: human. On the procedure: Determination of Compounds Cytotoxicity Using the HCV GT1b Replicon Cell Line Measuring WST1.
2209-23 cells were plated at a cell density of 5000 cells per well in clear flat-bottom 96 well plate (Becton Dickinson, Cat #35 3075) for cell viability studies. The WST-1 cell proliferation assay (Roche Diagnostic, Cat#11644807001) was used to determine cell viability. Assay plates were set up in the same format as in the replicon assay. After 3 days of compound incubation 10 μl of WST-1 reagent was added to each well for 2 hours at 37° C. and 5% CO2, following manufacturer's instructions. Absorption reading at 450 nm (reference filter at 650 nm) was determined using MRX Revelation microtiter plate reader (Lab System). CC50 values were defined as the compound concentration required for reducing cell viability by 50% as compared to the untreated control in absence of compound and was determined by non-linear fitting of compound dose-response data. Representative assay data can be found in Table II below: […]
What is called CC50 is the concentration at which the toxic effect on the cells reaches its halfway point. Higher therefore signals lower toxicity to the cells. Consider `COC(=O)N[C@H]1CCC(=O)N2CCC[C@@H](c3ncc(-c4ccc(-c5cnc6cc(-c7cnc([C@@H]8CCCN8C(=O)[C@@H](NC(=O)OC)C(C)C)[nH]7)ccc6n5)cc4)[nH]3)N2C1=O` [Compound I-4, ((4S,7S)-4-{5-[4-(6-{2-[(S)-1-((S)-2-Methoxycarbonylamino-3-methyl-butyryl)-pyrrolidin-2-yl]-3H-imidazol-4-yl}-quinoxalin-2-yl)-phenyl]-1H-imidazol-2-yl}-6,10-dioxo-octahydro-pyridazino[1,2-a][1,2]diazepin-7-yl)-carbamic acid methyl ester], for which the half-maximal cytotoxic concentration (CC50) at 3 days came out at 8160 nM.

A further data set concerns GT-1a pRLuc H77 1b 75 SI subgenomic replicon cell line (Huh7). In words: HCV GT-1a replicon luciferase reporter assay. The format is cell-based. The following applies: Hepatitis C virus, GT1A, Huh-7; Renilla luciferase reporter read 72 hours after compound addition; GT-1a H77 replicon cells. The source says: Determination of compounds HCV GT1b inhibitory replicon activity using the replicon luciferase reporter assay
The 2209-23 cell line was developed at Roche by stable transfection of the hepatoma cell line Huh-7 with a GT-1b Con1 subgenomic bicistronic replicon as previously described. Subgenomic replicon cell line was established in cured Huh7 cells, obtained from R. Bartenschlager (J Virol. 2003 March; 77 (5):3007-19) The GT-1a H77 subgenomic replicon vector pRLuc H77 lb 75 SI, was created by replacing the non structural region of the GT-1b Con1 subgenomic replicon by the one of the H77 strain, except for the first 75 amino acids of the NS3 protein that are from GT-1b Con1 strain. (J Virol. 2001 77:5352-59) The GT-1a pRLuc H77 1b 75 SI subgenomic replicon cell line was established in cured Huh7 cells, obtained from R. Bartenschlager. (J Virol. 2003 March; 77 (5):3007-19)
All the subgenomic replicon cell lines were cultured in Dulbecco's Modified Eagle Medium (DMEM-Glutamax™-I; Invitrogen Cat #10569-010). The medium was supplemented with 10% Fetal Bovine Serum (Invitrogen Cat #10082-147), 1% penicillin/streptomycin (Mediatech Cat #30-002-CI) and 500 μg/ml of G418 (Mediatech Cat #30-234-CI). Cells were maintained at 37° C. in a humidified 5% CO2 atmosphere.
2209-23 cells were plated at a cell density of 5000 cells per well in 96 well plates (Becton Dickinson, Cat #35 3296). Cells were plated in 90 μl of Dulbecco's Modified Eagle Medium (DMEM-Glutamax™-I), (Invitrogen Cat #10569-010) medium was supplemented with 5% Fetal Bovine Serum (Invitrogen Cat #10082-147), 1% penicillin/streptomycin (Mediatech Cat #30-002-CI). The pRluc H77 1b 75 SI cells were plated in 96-well plate at 3000 cells/well in DMEM-Glutamax™-I containing 5% FBS and 1% penicillin/streptomycin in 90 μl final volume. Cells were allowed to equilibrate for 24 hours at 37° C. and 5% CO2 at which time compounds were added. Compounds (or medium as a control) were added 24 hours post-plating in 3 fold dilutions at a final DMSO concentration of 1% in 10 ul volume. Renilla luciferase reporter signal was read 72 hours after addition of compounds using the Renilla Luciferase Assay System (Promega, cat # E2820). EC50 values were defined as the compound concentration at which a 50% reduction in the levels of renilla luciferase reporter was observed as compared to control samples in the absence of compound and was determined by non-linear fitting of compound dose-response data. The EC50 was approximated if maximum percentage inhibition was less than 90% and more than 70%.
On the technique in general: Replicon systems follow genome replication, usually without infectious particles.
The term EC50 denotes the concentration at which the effect is half-maximal. Low values mean an effect from little substance, high ones a need for much substance. For the compound `COC(=O)N[C@H]1CCC(=O)N2CCC[C@@H](c3ncc(-c4ccc(-c5ccc(-c6cnc([C@@H]7CCCN8C(=O)CC[C@H](NC(=O)OC)C(=O)N78)[nH]6)cc5)cc4)[nH]3)N2C1=O` [Compound I-1, [(4S,7S)-4-(5-{4′-[2-((1S,9S)-9-[(Methoxycarbonyl)amino]-6,10-dioxo-octahydro-pyridazino[1,2-a][1,2]diazepin-1-yl)-3H-imidazol-4-yl]-biphenyl-4-yl}-1H-imidazol-2-yl)-6,10-dioxo-octahydro-pyridazino[1,2-a][1,2]diazepin-7-yl]-carbamic acid methyl ester], the 50% effective concentration (EC50) turned out to be 10.6 nM.

Compound `COC(=O)N[C@H]1CCC(=O)N2CCC[C@@H](c3nc4cc(-c5ccc(-c6cnc([C@@H]7CCCN7C(=O)[C@@H](NC(=O)OC)C(C)C)[nH]6)cc5)ccc4[nH]3)N2C1=O` [Compound I-2, {(4S,7S)-4-[5-(4-{2-[(S)-1-((S)-2-Methoxycarbonylamino-3-methyl-butyryl)-pyrrolidin-2-yl]-3H-imidazol-4-yl}-phenyl)-1H-benzoimidazol-2-yl]-6,10-dioxo-octahydro-pyridazino[1,2-a][1,2]diazepin-7-yl}-carbamic acid methyl ester] gave an EC50 of 156 nM.

In turn, `COC(=O)N[C@H](C(=O)N1CCC[C@H]1c1ncc(-c2ccc(-c3ccc(-c4cnc([C@@H]5CCCN6C(=O)CC[C@H](NC(=O)OCc7ccccc7)C(=O)N56)[nH]4)cc3)cc2)[nH]1)C(C)C` [Compound I-3, {(4S,7S)-4-[5-(4′-{2-[(S)-1-((S)-2-Methoxycarbonylamino-3-methyl-butyryl)-pyrrolidin-2-yl]-3H-imidazol-4-yl}-biphenyl-4-yl)-1H-imidazol-2-yl]-6,10-dioxo-octahydro-pyridazino[1,2-a][1,2]diazepin-7-yl}-carbamic acid benzyl ester] returned a 50% effective concentration (EC50) of 2.95 nM.

Consider `COC(=O)N[C@H]1CCC(=O)N2CCC[C@@H](c3ncc(-c4ccc(-c5cnc6cc(-c7cnc([C@@H]8CCCN8C(=O)[C@@H](NC(=O)OC)C(C)C)[nH]7)ccc6n5)cc4)[nH]3)N2C1=O` [Compound I-4, ((4S,7S)-4-{5-[4-(6-{2-[(S)-1-((S)-2-Methoxycarbonylamino-3-methyl-butyryl)-pyrrolidin-2-yl]-3H-imidazol-4-yl}-quinoxalin-2-yl)-phenyl]-1H-imidazol-2-yl}-6,10-dioxo-octahydro-pyridazino[1,2-a][1,2]diazepin-7-yl)-carbamic acid methyl ester], for which a half-maximal response (EC50) required 0.13 nM.

`COC(=O)N[C@H]1CCC(=O)N2CCC[C@@H](c3ncc(-c4ccc(-c5ccc(-c6cnc([C@@H]7CC(F)(F)CN7C(=O)[C@@H](NC(=O)OC)C(C)C)[nH]6)cc5)cc4)[nH]3)N2C1=O` [Compound I-5, {(4S,7S)-4-[5-(4′-{2-[(S)-4,4-Difluoro-1-((S)-2-methoxycarbonylamino-3-methyl-butyryl)-pyrrolidin-2-yl]-3H-imidazol-4-yl}-biphenyl-4-yl)-1H-imidazol-2-yl]-6,10-dioxo-octahydro-pyridazino[1,2-a][1,2]diazepin-7-yl}-carbamic acid methyl ester] came in with a concentration for a half-maximal effect (EC50) of 0.92 nM.

`COC(=O)N[C@H]1CCC(=O)N2CCC[C@@H](c3ncc(-c4ccc(-c5ccc(-c6cnc(C7CC8(CCOCC8)CN7C(=O)[C@@H](NC(=O)OC)C(C)C)[nH]6)cc5)cc4)[nH]3)N2C1=O` (stereo partly drawn) [Compound I-6, {(4S,7S)-4-[5-(4′-{2-[2-((S)-2-Methoxycarbonylamino-3-methyl-butyryl)-8-oxa-2-aza-spiro[4.5]dec-3-yl]-3H-imidazol-4-yl}-biphenyl-4-yl)-1H-imidazol-2-yl]-6,10-dioxo-octahydro-pyridazino[1,2-a][1,2]diazepin-7-yl}-carbamic acid methyl ester] showed an EC50 of 1.5 nM.

The compound `COC(=O)N[C@H]1CCC(=O)N2CCC[C@@H](c3ncc(-c4ccc(-c5ccc(-c6cnc([C@@H]7CCCN7C(=O)[C@@H](NC(=O)OC)C(C)C)[nH]6)cc5)cc4)[nH]3)N2C1=O` [Compound I-7, {(4S,7S)-4-[5-(4′-{2-[(S)-1-((S)-2-Methoxycarbonylamino-3-methyl-butyryl)-pyrrolidin-2-yl]-3H-imidazol-4-yl}-biphenyl-4-yl)-1H-imidazol-2-yl]-6,10-dioxo-octahydro-pyridazino[1,2-a][1,2]diazepin-7-yl}-carbamic acid methyl ester] came in with a 50% effective concentration (EC50) of 1.1 nM.
